Measured values reported in PMC11054274, “Dual Antitubercular and Antileishmanial Profiles of Quinoxaline Di-N-Oxides Containing an Amino Acidic Side Chain” (Pharmaceuticals, 2024).
Where two headings read alike, the source gives them in different places.

Experiments:
[1] = test system: Mycobacterium tuberculosis H37Rv; test: In vitro activity against Mycobacterium tuberculosis H37Rv, microdilution AlamarBlue broth assay (BacTiter-Glo alternative read-out); type: cell-based; conditions: for IC90: read-out: IC90, antibacterial activity against Mtb H37Rv
[2] = test system: Leishmania donovani promastigotes; test: Promastigote susceptibility assay (resazurin), L. donovani; type: cell-based; conditions: for IC50: Table S2, 48 h; for IC50 / activity against L. donovani (in words): promastigotes; for L. donovani promastigote selectivity index (SI): SI = CC50 (J774 macrophages)/IC50
Protocol: (§1) The following species of Leishmania were used: L. donovani (MHOM/IN/80/DD8), which was purchased (ATCC, Manassas, VA, USA), and L. amazonensis (MHOM/Br/79/Maria), which was kindly provided by Prof. Alfredo Toraño (Instituto de Salud Carlos III, Madrid, Spain). Promastigotes were cultured in Schneider’s Insect Medium supplemented with 10% heat-inactivated Fetal Bovine Serum (FBS) (SIGMA-Merck, Madrid, Spain) and 1000 U/L of penicillin plus 100 mg/L of streptomycin in 25 mL culture flasks at 26 °C.
(§2) The activity of the compounds on Leishmania promastigotes was performed according to the method previously reported by us. Briefly, promastigotes (2.5 × 10^5 parasites/well) were cultured in 96-well plastic plates. The compounds were dissolved in dimethylsulfoxide (DMSO). Serial dilutions at 1:2 of the test compounds in fresh culture medium were performed (100, 50, 25, 12.5, 6.25, 3.12, 1.56 and 0.78 µg/mL) in a final volume of 200 µL; the solutions were then added to the parasite suspension. After an incubation period of 48 h at 26 °C, a volume of 20 μL of 2.5 mM resazurin solution in PBS was added and the plates were incubated for 3 h under the same conditions. Finally, the Relative Fluorescence Unit (RFU) (535ex–590em nm wavelength) was determined in a fluorimeter (Infinite 200 Tecan i-Control). Growth inhibition (%) was calculated by 100—[(RFU treated wells—RFU signal-to-noise)/(RFU untreated—RFU signal-to-noise) × 100]. All tests were carried out in triplicate and the IC50 was calculated by probit analysis using SPSS 17.0 Statistics Software. Miltefosine (Sigma-Merck, Madrid, Spain) was used as the reference drug.

[3] = test system: Leishmania amazonensis promastigotes; test: Promastigote susceptibility assay (resazurin), L. amazonensis; type: cell-based; conditions: for IC50: Table S2, 48 h, read-out: L. amazonensis IC50 (promastigote); for IC50 / activity against L. amazonensis (in words): promastigotes; for L. amazonensis promastigote selectivity index (SI): SI = CC50 (J774 macrophages)/IC50
Protocol: as §1, §2

[4] = test system: Leishmania amazonensis amastigotes; test: Intracellular amastigote assay in J774 macrophages, L. amazonensis; type: cell-based; conditions: for IC50: Table S3, intracellular amastigotes, 48 h, read-out: L. amazonensis IC50 (amastigote)
Protocol: We performed an intracellular amastigote assay on L. amazonensis and L. donovani according to a fluorometric method reported by us. To carry out the in vitro macrophage infections, 5 × 10^4 cells were cultured in RPMI-1640 medium and then were infected with 5 × 10^5 promastigotes. In the L. donovani assays, the plates were incubated for 48 h at 37 °C, while in the L. amazonensis assays, they were incubated at 33 °C for the first 24 h and then the temperature was increased to 37 °C for the next 24 h. After, the culture medium was removed and the cells were washed with buffered RPMI-HEPES at pH 7.4 several times in order to eliminate the non-internalized promastigotes. A total of 100 µL of fresh medium tempered at 37 °C was added to the infected cells, which then were exposed to 100 µL of the test compounds in RPMI-1640 at different concentrations (100, 50, 25, 12.5, 6.25, 3.12, 1.56 and 0.78 µg/mL in a final volume of 200 µL) for 48 h at 37 °C. The culture medium was removed by centrifugation at 3500 rpm for 5 min (Centrifuge 5403 Eppendorf) and a lysis solution (0.02% sodium dodecyl sulfate in RPMI-HEPES) was added. After 20 min, the treated cells were harvested (centrifugation at 3500 rpm for 5 min at 4 °C) and the supernatants were replaced by 200 μL of fresh Schneider’s culture medium. The plates were then incubated at 26 °C for another 3 days to allow for the transformation of viable amastigotes into promastigotes and proliferation. Afterwards, 20 μL/well of 2.5 mM resazurin was added and incubated for another 3 h. Finally, URF was measured and IC50 was estimated as described above. All tests were carried out in triplicate. Miltefosine was used as the reference drug.

J774 murine macrophages = test: Cytotoxicity assay on macrophages (resazurin); type: cell-based; conditions: for CC50: 24 h exposure, read-out: Toxicity against J774 macrophages CC50
Protocol: (§3) J774 murine macrophages were grown in RPMI-1640 medium (Sigma) supplemented with 10% heat-inactivated FBS (30 min at 56 °C) (SIGMA-Merck), penicillin G (100 U/mL) and streptomycin (100 µg/mL). For the experiments, cells in the pre-confluence phase were harvested with trypsin. Cell cultures were maintained at 37 °C in a humidified environment with 5% CO2.
(§4) Cell viability was evaluated using a modification with resazurin of the colorimetric method described previously. J774 macrophages were seeded (5 × 10^4 cells/well) in 96-well flat-bottom microplates with 100 µL of RPMI-1640 medium. The cells were allowed to adhere for 4 h at 37 °C in 5% CO2, then different concentrations of the test compounds in 100 µL of the medium were added and exposed for 24 h. Growth controls were also included. To evaluate cell viability, 20 µL of a 2.5 mM resazurin solution was added and the plates were returned to the incubator for another 3 h. The reduction in resazurin was determined by measuring the fluorescence intensity (excitation wavelength, 535 nm; emission wavelength, 590 nm). Each concentration was assayed three times. The medium and controls were used in each test as blanks. The cytotoxic effect of the compounds was defined as the 50% reduction in cell viability of treated culture cells with respect to the untreated culture (CC50).

[5] = Cytotoxicity assay on macrophages (resazurin); type: cell-based, murine; conditions: mouse, J774 macrophages, Table S2; 24 h exposure; read-out: Toxicity against J774 macrophages CC50
Protocol: as §3, §4

[6] = Mycobacterium tuberculosis, Table S1, Mtb H37Rv, read-out: IC50, antibacterial activity against Mtb H37Rv
[7] = Mycobacterium tuberculosis, Table S1, Mtb H37Rv
[8] = Table S1, Mtb H37Rv, read-out: IC50, antibacterial activity against Mtb H37Rv
[9] = Mycobacterium tuberculosis, H37Rv strain, read-out: IC50 against Mycobacterium tuberculosis H37Rv

Compound | IC50 [1, 6] | IC90 [1, 7] | IC50 [2] | IC50 [1, 8] | IC90 ([1]; Table S1, Mtb H37Rv) | IC50 [3] | CC50 (J774 murine macrophages; Table S2) | IC50 ([2]; Leishmania donovani) | IC50 ([3]; Leishmania amazonensis) | L. amazonensis promastigote selectivity index (SI) [3] | CC50 at 24 h [5] | other results
NCC[C@H](O)C(=O)N[C@@H]1C[C@H](N)[C@@H](O[C@H]2O[C@H](CN)[C@@H](O)[C@H](O)[C@H]2O)[C@H](O)[C@H]1O[C@H]1O[C@H](CO)[C@@H](O)[C@H](N)[C@H]1O [Amikacin, reference compound] | 0.07 µM | 0.08 µM | – | – | – | – | – | – | – | – | – | –
COC(=O)CNC(=O)c1c(-c2ccccc2)[n+]([O-])c2ccccc2[n+]1[O-] [Compound 4a, N-(1,4-Dioxide-3-phenylquinoxaline-2-carbonyl)glycine methyl ester] | – | – | 103 ± 9.8 µM | 26.3 µM | 55.5 µM | 171 ± 8.5 µM | 850 µM | – | – | – | – | IC50 [4]: 12.6 ± 0.3 µM; CC50 (J774 murine macrophages; Table S3): 850 µM
COC(=O)CNC(=O)c1c(-c2ccc(OC)cc2)[n+]([O-])c2ccccc2[n+]1[O-] [Compound 4b] | – | – | 261 ± 7.8 µM | 40.6 µM | 69.8 µM | 157 ± 7.8 µM | 1570 µM | – | – | – | – | –
COC(=O)CNC(=O)c1c(-c2ccc(C(F)(F)F)cc2)[n+]([O-])c2ccccc2[n+]1[O-] [Compound 4c] | – | – | > 238 µM | 13.2 µM | 25.9 µM | > 238 µM | 6960 µM | – | – | – | – | activity against L. donovani (in words) [2]: inactive; activity against L. amazonensis (in words) [3]: inactive
COc1ccc2c(c1)[n+]([O-])c(-c1ccccc1)c(C(=O)NCC(=O)OCc1ccccc1)[n+]2[O-] [Compound 4f, N-(6-Methoxy-1,4-dioxide-3-(phenyl)quinoxaline-2-carbonyl)glycine benzyl ester] | – | – | > 261 µM | 21.9 µM | 47.9 µM | > 261 µM | – | – | – | – | – | activity against L. donovani (in words) [2]: inactive; activity against L. amazonensis (in words) [3]: inactive
COC(=O)CNC(=O)c1c(-c2ccc(C)cc2)[n+]([O-])c2cc(OC)ccc2[n+]1[O-] [Compound 4j, N-(6-Methoxy-1,4-dioxide-3-(4-methylphenyl)quinoxaline-2-carbonyl)glycine methyl ester] | 12.9 µM | 24.6 µM | – | – | – | – | – | 13.8 ± 9.5 µM | 111 ± 4 µM | 2.9 | 318.6 ± 0.84 µM | L. donovani promastigote selectivity index (SI) [2]: 23.2
COC(=O)CNC(=O)c1c(-c2ccc(C(F)(F)F)cc2)[n+]([O-])c2cc(C)ccc2[n+]1[O-] [Compound 4l, N-(6-Methyl-1,4-dioxide-3-(4-trifluoromethylphenyl)quinoxaline-2-carbonyl)glycine methyl ester] | – | – | – | 7.2 µM | 15.5 µM | > 230 µM | 1380 µM | – | – | – | – | activity against L. donovani (in words) [2]: inactive; activity against L. amazonensis (in words) [3]: inactive
COC(=O)CNC(=O)c1c(-c2ccccc2)[n+]([O-])c2cc(C(F)(F)F)ccc2[n+]1[O-] [Compound 4n, N-(1,4-Dioxide-6-trifluoromethyl-3-phenylquinoxaline-2-carbonyl)glycine methyl ester] | – | – | 43.5 ± 1.1 µM | 11.9 µM | 27.9 µM | 97.3 ± 4.3 µM | 191 ± 29.3 µM | – | – | – | – | –
O=C(O)CNC(=O)c1c(-c2ccc(F)cc2)[n+]([O-])c2ccccc2[n+]1[O-] [Compound 5d, 2-((Carboxymethyl)carbamoyl)-3-(4-fluorophenyl)quinoxaline 1,4-dioxide] | – | – | – | – | – | – | – | > 280 µM | > 280 µM | > 3.0 | 840 µM | –
COc1ccc2c(c1)[n+]([O-])c(-c1ccccc1)c(C(=O)NCC(=O)O)[n+]2[O-] [Compound 5f, 2-((Carboxymethyl)carbamoyl)-6-methoxy-3-phenylquinoxaline 1,4-dioxide] | 4.28 µM | 9.86 µM | – | – | – | – | – | > 271 µM | > 271 µM | > 30 | 8130 µM | –
COc1ccc2c(c1)[n+]([O-])c(-c1ccc(C(F)(F)F)cc1)c(C(=O)NCC(=O)O)[n+]2[O-] [Compound 5h, 2-((Carboxymethyl)carbamoyl)-6-methoxy-3-(4-(trifluoromethyl)phenyl)quinoxaline 1,4-dioxide] | 16.4 µM | 22 µM | – | – | – | – | – | > 229 µM | > 229 µM | > 8 | 1830 µM | –
Cc1ccc2c(c1)[n+]([O-])c(-c1ccc(F)cc1)c(C(=O)NCC(=O)O)[n+]2[O-] [Compound 5m, 2-((Carboxymethyl)carbamoyl)-3-(4-fluorophenyl)-6-methylquinoxaline 1,4-dioxide] | 17.2 µM | 35.1 µM | – | – | – | – | – | > 270 µM | > 270 µM | > 30 | 8090 µM | –
COc1ccc2c(c1)[n+]([O-])c(-c1ccc(C)cc1)c(C(=O)O)[n+]2[O-] [Compound 6, 2-Carboxy-6-methoxy-3-(4-tolyl)quinoxaline 1,4-dioxide] | 45 µM | 76.4 µM | – | – | – | – | – | 6.2 ± 0.2 µM | 20.5 ± 2.5 µM | 20.7 | 424 µM | L. donovani promastigote selectivity index (SI) [2]: 68.4; IC50 ([4]; Leishmania amazonensis, J774): 31.9 ± 13.2 µM; L. amazonensis amastigote selectivity index (SI) ([4]; SI = CC50 (J774 macrophages)/IC50): 13.3
N[C@@H]1CON=C1O [Cycloserine, reference compound] | – | 13.5 µM | – | – | – | – | – | – | – | – | – | IC50 [1, 9]: 12.5 µM
CC[C@@H](CO)NCCN[C@@H](CC)CO [Ethambutol, reference compound] | 1.56 µM | 32.8 µM | – | – | – | – | – | – | – | – | – | –
NNC(=O)c1ccncc1 [Isoniazid, reference compound] | 0.18 µM | 0.29 µM | – | – | – | – | – | – | – | – | – | –
CCc1nc(N)nc(N)c1-c1ccc(Cl)cc1 [Pyrimethamine, reference compound] | – | 75 µM | – | – | – | – | – | – | – | – | – | IC50 [1, 9]: 37.4 µM
N-(1,4-Dioxide-3-((4,5-dimethoxy-2-nitro-phenyl)quinoxaline-2-carbonyl)glycine benzyl ester [Compound 4e] | – | – | 34 ± 5.2 µM | 25.2 µM | 47.9 µM | 25.1 ± 0.56 µM | 18.5 ± 3.4 µM | – | – | – | – | toxicity to macrophages (in words) (J774 murine macrophages): highly toxic to macrophages
